This is an account of results in patent US20070088064A1, “PHARMACEUTICAL COMPOSITION CONTAINING BICYCLIC TYPE COMPOUNDS” (SmithKline Beecham plc, priority 1992, published 2007).

The test system of this test is electrically-induced seizures. Nature of the test: Maximal electroshock seizure (MES) threshold test. The settings on record: 10 mg/kg p.o., mice. The format is in vivo. The procedure: The maximal electroshock seizure (MES) threshold test in rodents is particularly sensitive for detecting potential anticonvulsant properties^1. In this model, anticonvulsant agents elevate the threshold to electrically—induced seizures whilst proconvulsants lower the seizure threshold.
Mice (male, Charles River, U.K. CD-1 strain, 25-30 g) are randomly assigned to groups of 10-20 and dosed orally or intraperitoneally at a dose volume of 10 ml/kg with various doses of compound (0.3-300 mg/kg) or vehicle. Mice are then subjected at 30 or 60 min post dose to a single electroshock (0.1 sec, 50 Hz, sine wave form) administered via corneal electrodes. The mean current and standard error required to induce a tonic seizure in 50% (CC50) of the mice in a particular treatment group is determined by the ‘up and down’ method of Dixon and Mood (1948)^2. Stastical comparisons between vehicle—and drug—treated groups are made using the method of Litchfield and Wilcoxon (1949)^3.
In control animals the CC50 is usually 14-18 mA. […] If a tonic convulsion does occur, then the current is decreased, and so on until all the animals in the group have been tested.
The percentage increase or decrease in CC50 for each group compared to the control is calculated. […]
In general terms: In the maximal electroshock model the usual endpoint is tonic extension of the hind limbs.

In the case of `CC(=O)c1ccc2c(c1)[C@H](NC(=O)c1ccc(F)cc1)[C@H](O)C(C)(C)O2` (relative stereo) [Example 3, cis-6-Acetyl-4S-(4-fluorobenzoylamino)-3,4-dihydro-2,2-dimethyl-2H-1-benzopyran-3S-ol], the “enhanced seizure threshold (percentage increase in CC50 compared to control)” value amounted to 84%.
`CCc1ccc2c(c1)[C@H](NC(=O)c1ccc(F)cc1)[C@H](O)C(C)(C)O2` (relative stereo) [Example 7, cis-6-Ethyl-4S-(4-fluorobenzoylamino)-3,4-dihydro-2,2-dimethyl-2H-1-benzopyran-3S-ol]: the “enhanced seizure threshold (percentage increase in CC50 compared to control)” value amounted to 105%.
